Measurements reported in patent US10647680B2, “Urea compound, preparation method therefor and medical use thereof” (Ancureall Pharmaceutical (Shanghai) Co., Ltd., priority 2016, dated 2020).

Experiments:
Assay type in all cases: cell-based
[1] = tested on: H1299 (NRAS Q61K mutant type); assay: In vitro growth inhibition (GI50), H1299; conditions: Homo sapiens, NCI-H1299
Excerpt: (§1) Tumor cell line is an effective cell model for studying the inhibition of tumor cell growth or proliferation in vitro. In the present invention, a representative tumor cell line was selected to determine the cell growth inhibition activity of the present compound. All cell lines used were from ATCC, DSMZ, and the Cell Bank of the Chinese Academy of Sciences. Cell culture conditions and methods were in accordance with the requirements of each cell line. Cells were subcultured in vitro for no more than 3 passages each time, and as required, single-clone purification and identification of cell lines could be carried out.
(§2) The cell culture media used were RPMI1640 (Gibco), MEM (Gibco), McCOY'S5A (Gibco), and IMDM (Gibco). The complete medium was prepared by supplement with 5˜20% fetal calf serum (Gibco), 1% double-antibiotics (10000 units/mL penicillin and 10000 units/mL), 2 mM glutamine or 1 mM sodium pyruvate, respectively.
Human large cell lung cancer cell NCI-H460 (KRAS […] mutant type, ATCC), human non-small cell lung cancer cell line H1299 (NRAS Q61K mutant type, ATCC), human melanoma cell line A375 (BRAF V600E mutant type, Shanghai Cell Bank of Chinese Academy of Sciences), human colon cancer cell line HCT116 (KRAS G13D mutant type, Shanghai Cell Bank, Chinese Academy of Sciences) were cultured in a complete medium of 1×RPMI1640 (10% FBS), respectively. Human non-small cell lung cancer cells A549 (KRAS G12S mutant type, Shanghai Cell Bank, Chinese Academy of Sciences) were cultured in a complete medium of 1× Ham's supplemented with 10% FBS, 1% double antibody, and 2 mM glutamine.
(§3) Adherent cells were digested with 0.25% pancreatin-EDTA (Gibco). The suspension cells were collected by centrifugation. The supernatant was discarded and the cell pellet was resuspended and counted. Different cell concentrations (5˜10×10^4 cells/mL) were prepared according to the growth cycle of each cell line and then seeded on a 96-well plate (Corning), 100 μL/well. The cells were incubated overnight at 37° C., 5% CO2. The compounds were added to the cells on the second day with 2 wells in parallel. The final concentration of organic solvent shall not exceed 1%. The cells were continually incubated for 3 to 5 days, and then subjected to MTT assay.
(§4) The compound of the present invention and the control compound were dissolved in DMSO (Sigma) respectively, with the purity of more than 98%. The compound was stored in a concentration of 10 mM at −20° C. and diluted to 2- or 10-fold series prior to use.
(§5) Dojindo CCK8 reagent kit was used as MTT assay. THERMO […] FC meter was used as microplate reader.
(§6) For adherent cells, culture medium was removed and immediately replaced with the fresh prepared medium which contains 10% CCK8 reagent (100 μL/well). For the suspension cells, CCK8 was directly added to 10% of the final concentration. The cells were continually incubated for 1˜4 h. When a dark yellow color could be observed in the solvent control wells, the absorbance value at OD450 nm was measured and the cell growth rate was calculated according to the following formula: Cell Growth Rate (%)=100*(T−T0)/(C−T0) T=optical density of drug treatment cell well—optical density of blank control well; T0=optical density of cell well before drug treatment—optical density of blank control well; C=optical density of cell well of solvent control group—optical density of blank control well. The concentration value of 50% inhibition of cell growth (GI50) was calculated according to the drug concentration and cell growth rate curve. The experiment was independently repeated 1˜3 times, and subject to biological statistical analysis. 4. Experimental Results
(§7) Tumor cell growth inhibition test was performed by selecting representative compounds (compounds 4, 11, 12, 16, 27, 68, 71, 77, 79, 89 and 116 of the present invention). The initial concentration of the compound was 5,000 nM, then it was serially diluted by 2-fold or 10-fold to 0.01 nM. […]

[2] = tested on: NCI-H1993 (c-MET amp); assay: In vitro growth inhibition (GI50), NCI-H1993; conditions: Homo sapiens, H1993, cMET Amp+
Excerpt: as §1, §2
The human gastric cancer cell line MKN-45 (c-MET amp, ATCC) and the non-small cell lung cancer cell line NCI-H1993 (c-MET amp, ATCC) were cultured in complete medium comprising 1×RPMI1640 and 10% FBS, respectively.
as §3, §4, §5, §6
Tumor cell growth inhibition test was performed by selecting representative compounds (compounds 4, 11, 12, 16, 27, 68, 71, 77, 79, 89 and 116 of the present invention). The initial concentration of the compound was 5,000 nM, then it was serially diluted by 2-fold or 10-fold to 0.01 nM. The GI50 value of each test compound was calculated according to the GI50 assay and calculation method. The experiments were repeated 1 to 3 times, and data were subjected to biological statistical analysis.

[3] = tested on: NCI-H292 (EGFR WT); assay: In vitro growth inhibition (GI50), NCI-H292; conditions: Homo sapiens
Excerpt: as §1, §2
Human epidermal cancer cell line A431 (EGFR WT, amplification and high expression, from Shanghai Cell Bank of Chinese Academy of Sciences and ATCC), human lung cancer cell line NCI-H292 (EGFR WT, purchased from Shanghai Cell Bank of Chinese Academy of Sciences), NSCLC cell lines PC-9 and HCC827 (EGFR exon19 E746-A750 deletion, two cell lines are sensitive to the first-generation EGFR PTK inhibitor), NSCLC cell line NCI-H1975 (EGFR L858R/T790M and the first-generation EGFR inhibitor resistance, ATCC) were cultured with 1×RPMI1640 complete medium (supplement with 10% FBS), respectively.
as §3, §4, §5, §6
as §7, with “nM. The GI50 value of each test compound was calculated according to the GI50 assay and calculation method.” for “nM.”

[4] = tested on: NCI-H2170 (HER2/ErbB2 amp); assay: In vitro growth inhibition (GI50), NCI-H2170; conditions: Homo sapiens
Excerpt: as §1, §2
Human gastric cancer cell line NCI-N87 (HER2/ErbB2 amp, ATCC), human breast cancer cell line HCC1954 (HER2/ErbB2 amp, ATCC) and ZR-75-30 (HER2/ErbB2 amp, ATCC), human adenocarcinoma cell line AU565 (HER2/ErbB2 amp, ATCC), human lung squamous cell carcinoma cell line NCI-H2170 (HER2/ErbB2 amp, ATCC), human bronchioalveolar adenocarcinoma cell line NCI-H1781 (HER2/ErbB2 Ins G776V,C mutant type, ATCC) were cultured with a 1×RPMI1640 complete medium (10% FBS), respectively. Human lung adenocarcinoma cell line Calu-3 (HER2/ErbB2 amp, ATCC) was cultured with 1×MEM, 10% FBS, 1% double antibody, 1% NEAA (Gibco), 2 mM glutamine and 1 mM sodium pyruvate. The human breast cancer cell line SK-BR-3 (HER2/ErbB2 amp, ATCC) was cultured with a McCOY'S5A complete medium (10% FBS).
as §3, §4, §5, §6
Tumor cell growth inhibition test was performed by selecting representative compounds (compounds 4, 11, 12, 16, 27, 68, 71, 77, 79, 89 and 116 of the present invention). […]

| Compound | GI50 [1] | GI50 [2] | GI50 [3] | GI50 [4] |
| --- | --- | --- | --- | --- |
| COCCOc1ccc2c(c1)ncn2-c1ccc(NC(=O)Nc2cc(C(C)(C)C)n[nH]2)cc1 [Compound 77, 1-(5-tert-butyl-2H-pyrazol-3-yl)-3-{4-[5-(2-methoxyl-ethoxyl)-benzimidazol-1-yl]-phenyl}-urea] | > 2500 nM | > 2500 nM | > 2500 nM | > 2500 nM |
| COc1ccc2c(c1)ncn2-c1ccc(NC(=O)Nc2cc(C(C)(C)C)n[nH]2)cc1 [Compound 71, 1-(5-tert-butyl-2H-pyrazol-3-yl)-3-[4-(5-methoxyl-benzimidazol-1-yl)-phenyl]-urea] | > 2500 nM | > 2500 nM | > 2500 nM | > 2500 nM |
| CC(C)(C)c1cc(NC(=O)Nc2ccc(-n3cnc4cc(O)ccc43)cc2)no1 [Compound 4, 1-(5-tert-butyl-isoxazol-3-yl)-3-[4-(5-hydroxy-benzimidazol-1-yl)-phenyl]-urea] | > 2500 nM | > 2500 nM | > 2500 nM | > 2500 nM |
| CC(C)(C)c1cc(NC(=O)Nc2ccc(-n3cnc4cc(OCCO)ccc43)cc2)[nH]n1 [Compound 79, 1-(5-tert-butyl-2H-pyrazol-3-yl)-3-{4-[5-(2-hydroxy-ethoxyl)-benzimidazol-1-yl]-phenyl]urea] | > 2500 nM | > 2500 nM | > 2500 nM | > 2500 nM |

Continued, values first:

| GI50 [1] | GI50 [2] | GI50 [3] | GI50 [4] | Compound |
| --- | --- | --- | --- | --- |
| > 2500 nM | > 2500 nM | > 2500 nM | > 2500 nM | CC(C)(C)c1cc(NC(=O)Nc2ccc(-n3cnc4ccc(OCCN5CCOCC5)cc43)cc2)no1 [Compound 27, 1-(5-tert-butyl-isoxazol-3-yl)-3-{4-[6-(2morpholin-4-yl-ethoxyl)-benzimidazol-1-yl]-phenyl}-urea] |
| > 2500 nM | > 2500 nM | > 2500 nM | > 2500 nM | CC(C)(C)c1cc(NC(=O)Nc2ccc(-n3cnc4cc(OCCO)ccc43)cc2)no1 [Compound 11, 1-(5-tert-butyl-isoxazol-3-yl)-3-{4-[5-(2-hydroxy-ethoxyl)-benzimidazol-1-yl]-phenyl]-urea] |
| > 2500 nM | > 2500 nM | > 2500 nM | > 2500 nM | CC(C)(C)c1cc(N)n(C(=O)Nc2ccc(-n3cnc4ccccc43)cc2)n1 [Compound 116, 5-amino-3-tert-butyl-pyrazol-1-carboxylic acid (4-benzimidazol-1-yl-phenyl)-amide] |
| > 2500 nM | > 2500 nM | > 2500 nM | > 2500 nM | CC(C)(C)c1cc(NC(=O)Nc2ccc(-n3cnc4cc(OCCN5CCOCC5)ccc43)cc2)no1 [Compound 16, 1-(5-tert-butyl-isoxazol-3-yl)-3-{4-[5-(2-morpholin-4-yl-ethoxyl)-benzimidazol-1-yl]-phenyl}-urea] |
| > 2500 nM | > 2500 nM | > 2500 nM | > 2500 nM | CC(C)(C)c1cc(NC(=O)Nc2ccc(-n3cnc4ccccc43)cc2)[nH]n1 [Compound 68, 1-(4-benzimidazol-1-yl-phenyl)-3-(5-tert-butyl-2H-pyrazol-3-yl)-urea] |
| > 2500 nM | > 2500 nM | > 2500 nM | > 2500 nM | CC(C)(C)c1cc(NC(=O)Nc2ccc(-n3cnc4cc(OCCN5CCOCC5)ccc43)cc2)[nH]n1 [Compound 89, 1-(5-tert-butyl-2H-pyrazol-3-yl)-3-{4-[5-(2-morpholin-4-yl-ethoxyl)-benzimidazol-1-yl]-phenyl}-urea] |
